{"source": "patent US20260356804A1", "about": "“SODIUM CHANNEL BLOCKING COMPOUNDS, DERIVATIVES THEREOF, AND METHODS OF THEIR USE” (LATIGO BIOTHERAPEUTICS, INC., priority 2022, published 2026)", "target": "T1, human Nav1.8/b3 (Homo sapiens, UniProt Q9Y5Y9)", "T1 construct": "expressed in transfected cells; host or cells: CHO", "T1 sequence (Q9Y5Y9 whole entry)": "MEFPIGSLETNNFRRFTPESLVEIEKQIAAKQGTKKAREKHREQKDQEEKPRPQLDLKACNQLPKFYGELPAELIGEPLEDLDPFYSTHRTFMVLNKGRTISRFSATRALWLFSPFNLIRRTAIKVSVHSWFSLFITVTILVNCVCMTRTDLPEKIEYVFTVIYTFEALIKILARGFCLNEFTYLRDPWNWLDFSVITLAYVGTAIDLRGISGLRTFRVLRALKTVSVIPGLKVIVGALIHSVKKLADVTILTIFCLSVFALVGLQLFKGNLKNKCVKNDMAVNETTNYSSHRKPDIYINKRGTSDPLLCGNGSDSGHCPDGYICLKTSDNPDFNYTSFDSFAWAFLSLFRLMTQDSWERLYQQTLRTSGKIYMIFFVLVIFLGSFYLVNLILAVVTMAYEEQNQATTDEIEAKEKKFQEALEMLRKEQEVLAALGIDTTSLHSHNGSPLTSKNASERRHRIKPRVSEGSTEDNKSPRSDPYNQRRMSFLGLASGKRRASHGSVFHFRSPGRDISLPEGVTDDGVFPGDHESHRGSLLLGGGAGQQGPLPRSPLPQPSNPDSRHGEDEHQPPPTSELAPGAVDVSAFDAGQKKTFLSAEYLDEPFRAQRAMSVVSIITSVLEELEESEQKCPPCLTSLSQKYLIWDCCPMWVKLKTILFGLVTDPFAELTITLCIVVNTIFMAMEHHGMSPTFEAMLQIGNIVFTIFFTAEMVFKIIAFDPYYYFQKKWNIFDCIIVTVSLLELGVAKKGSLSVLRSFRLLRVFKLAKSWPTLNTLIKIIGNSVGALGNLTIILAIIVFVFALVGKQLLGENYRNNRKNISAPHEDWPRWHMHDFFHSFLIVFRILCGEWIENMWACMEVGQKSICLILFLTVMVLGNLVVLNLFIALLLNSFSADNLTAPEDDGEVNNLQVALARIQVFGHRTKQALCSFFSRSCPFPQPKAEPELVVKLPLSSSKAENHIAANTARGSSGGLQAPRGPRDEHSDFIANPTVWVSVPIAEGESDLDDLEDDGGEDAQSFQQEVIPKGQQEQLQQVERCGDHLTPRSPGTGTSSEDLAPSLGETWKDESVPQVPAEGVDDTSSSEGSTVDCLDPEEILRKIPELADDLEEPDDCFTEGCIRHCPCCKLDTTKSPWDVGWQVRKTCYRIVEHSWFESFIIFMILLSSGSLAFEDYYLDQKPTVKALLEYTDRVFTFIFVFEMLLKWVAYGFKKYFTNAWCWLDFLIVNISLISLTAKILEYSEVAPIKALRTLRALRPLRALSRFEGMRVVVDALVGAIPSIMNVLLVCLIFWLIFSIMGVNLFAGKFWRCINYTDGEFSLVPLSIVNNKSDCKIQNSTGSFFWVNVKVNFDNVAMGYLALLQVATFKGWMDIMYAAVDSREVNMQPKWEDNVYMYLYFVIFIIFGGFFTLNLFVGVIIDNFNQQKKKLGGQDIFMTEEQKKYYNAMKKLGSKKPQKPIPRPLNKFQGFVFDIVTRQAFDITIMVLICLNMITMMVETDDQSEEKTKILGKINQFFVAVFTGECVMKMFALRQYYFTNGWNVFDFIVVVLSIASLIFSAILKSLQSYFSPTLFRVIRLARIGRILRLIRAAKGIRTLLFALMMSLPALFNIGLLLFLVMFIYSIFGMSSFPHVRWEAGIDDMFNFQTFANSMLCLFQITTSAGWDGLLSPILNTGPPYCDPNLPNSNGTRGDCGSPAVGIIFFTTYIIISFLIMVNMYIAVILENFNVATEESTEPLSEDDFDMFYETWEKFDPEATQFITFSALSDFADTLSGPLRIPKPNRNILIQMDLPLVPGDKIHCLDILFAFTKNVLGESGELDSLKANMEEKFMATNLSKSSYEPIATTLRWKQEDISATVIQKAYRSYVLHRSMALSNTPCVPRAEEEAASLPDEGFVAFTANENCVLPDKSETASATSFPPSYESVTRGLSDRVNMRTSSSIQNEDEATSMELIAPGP", "T1 sequence (Q9NY72 23-215 partner)": "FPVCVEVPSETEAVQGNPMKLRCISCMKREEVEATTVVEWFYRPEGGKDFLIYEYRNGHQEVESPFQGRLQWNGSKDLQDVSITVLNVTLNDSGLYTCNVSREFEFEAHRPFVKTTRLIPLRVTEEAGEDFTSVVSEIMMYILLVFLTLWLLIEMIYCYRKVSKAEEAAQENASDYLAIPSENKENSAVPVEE", "assay": "Compound Profiling Human NaV1.8/β3 Cell Line—SyncroPatch384PE Assay (automated patch clamp, stably transfected CHO cells)", "type": "cell-based", "conditions": "Nav1.8/b3 CHO cells", "key": {"[1]": {"conditions": "P1 (IC50, resting state block), P1 measurement, resting state block, holding potential −120 mV, fourth set of compounds"}, "[2]": {"conditions": "P2 (IC50, inactivated state block), P2 measurement, inactivated state block, inactivation step −35 mV 10 sec, fourth set of compounds"}, "[3]": {"conditions": "P1 (IC50, resting state block), P1 measurement, resting state block, holding potential −120 mV, first set of compounds"}, "[4]": {"conditions": "P2 (IC50, inactivated state block), P2 measurement, inactivated state block, inactivation step −35 mV 10 sec, first set of compounds"}, "[5]": {"conditions": "P1 (IC50, resting state block), P1 measurement, resting state block, holding potential −120 mV, second set of compounds"}, "[6]": {"conditions": "P2 (IC50, inactivated state block), P2 measurement, inactivated state block, inactivation step −35 mV 10 sec, second set of compounds"}, "[7]": {"conditions": "P1 (IC50, resting state block), P1 measurement, resting state block, holding potential −120 mV, third set of compounds"}, "[8]": {"conditions": "P2 (IC50, inactivated state block), P2 measurement, inactivated state block, inactivation step −35 mV 10 sec, third set of compounds"}, "[9]": {"conditions": "P1 measurement, resting state block, holding potential −120 mV, first set of compounds, read-out: P1 (IC50, resting state block)"}, "[10]": {"conditions": "P2 measurement, inactivated state block, inactivation step −35 mV 10 sec, first set of compounds, read-out: P2 (IC50, inactivated state block)"}}, "note": "Counter-ions that a name gives are not always drawn. Like-named read-outs stand apart in the source and are kept apart here."}
{"smiles": "Cc1nc(F)ccc1Oc1ncc(C(F)(F)F)c(C)c1C(=O)Nc1cccc([S@@](C)(=O)=NC(=O)C2COC2)c1", "note": "[Example 6D, (R)-2-((6-fluoro-2-methylpyridin-3-yl)oxy)-4-methyl-N-(3-(S-methyl-N-(oxetane-3-carbonyl)sulfonimidoyl)phenyl)-5-(trifluoromethyl)nicotinamide]", "values": [{"measurement": "IC50", "setting": "[1]", "value": "< 5", "unit": "nM"}, {"measurement": "IC50", "setting": "[2]", "value": "< 5", "unit": "nM"}]}
{"smiles": "Cc1nc(F)ccc1Oc1ccc(-c2cnn(C)c2)c(C)c1C(=O)Nc1cccc([S@](C)(=N)=O)c1", "note": "[Example 7A, (R)-6-((6-fluoro-2-methylpyridin-3-yl)oxy)-2-methyl-3-(1-methyl-1H-pyrazol-4-yl)-N-(3-(S-methylsulfonimidoyl)phenyl)benzamide]", "values": [{"measurement": "IC50", "setting": "[3]", "value": "> 200", "unit": "nM"}, {"measurement": "IC50", "setting": "[4]", "value": "> 200", "unit": "nM"}]}
{"smiles": "Cc1nc(F)ccc1Oc1cc(C(F)(F)F)c(Cl)cc1C(=O)Nc1cccc([S@@](C)(=O)=NC(=O)C(C)(C)N)c1", "note": "[Example 7B, (R)—N-(3-(N-(2-amino-2-methylpropanoyl)-S-methylsulfonimidoyl)phenyl)-5-chloro-2-((6-fluoro-2-methylpyridin-3-yl)oxy)-4-(trifluoromethyl)benzamide]", "values": [{"measurement": "IC50", "setting": "[5]", "value": "< 5", "unit": "nM"}, {"measurement": "IC50", "setting": "[6]", "value": "< 5", "unit": "nM"}]}
{"smiles": "Cc1nc(F)ccc1Oc1nnc(-c2ccc3c(c2)OCCO3)c(C)c1C(=O)Nc1cccc([S@](C)(=N)=O)c1", "note": "[Example 7C, (R)-6-(2,3-dihydrobenzo[b][1,4]dioxin-6-yl)-3-((6-fluoro-2-methylpyridin-3-yl)oxy)-5-methyl-N-(3-(S-methylsulfonimidoyl)phenyl)pyridazine-4-carboxamide]", "values": [{"measurement": "IC50", "setting": "[7]", "value": "< 5", "unit": "nM"}, {"measurement": "IC50", "setting": "[8]", "value": "< 5", "unit": "nM"}]}
{"smiles": "Cc1nc(F)ccc1Oc1ncc(C(F)(F)F)c(C)c1C(=O)Nc1cccc([S@@](C)(=O)=NC(=O)[C@@H]2CCCO2)c1", "note": "[Example 7D, 2-((6-fluoro-2-methylpyridin-3-yl)oxy)-4-methyl-N-(3-((R)—S-methyl-N—((S)-tetrahydrofuran-2-carbonyl)sulfonimidoyl)phenyl)-5-(trifluoromethyl)nicotinamide]", "values": [{"measurement": "IC50", "setting": "[1]", "value": "< 5", "unit": "nM"}, {"measurement": "IC50", "setting": "[2]", "value": "< 5", "unit": "nM"}]}
{"smiles": "Cc1nc(F)ccc1Oc1cc(C(F)(F)F)ccc1C(=O)Nc1cccc([S@@](C)(=O)=NC(=O)[C@@H]2CCCN2)c1", "note": "[Example 8B, (S)—N—((R)-(3-(2-((6-fluoro-2-methylpyridin-3-yl)oxy)-4-(trifluoromethyl)benzamido)phenyl)(methyl)(oxo)-λ^6-sulfaneylidene)pyrrolidine-2-carboxamide formate]", "values": [{"measurement": "IC50", "setting": "P1 measurement, resting state block, holding potential −120 mV, second set of compounds, read-out: P1 (IC50, resting state block)", "value": "< 5", "unit": "nM"}, {"measurement": "IC50", "setting": "P2 measurement, inactivated state block, inactivation step −35 mV 10 sec, second set of compounds, read-out: P2 (IC50, inactivated state block)", "value": "< 5", "unit": "nM"}]}
{"smiles": "Cc1nc(F)ccc1Oc1ncc(C(F)(F)F)c(C)c1C(=O)Nc1cccc(S(N)(=O)=O)c1", "note": "[Example 8C, 2-((6-fluoro-2-methylpyridin-3-yl)oxy)-4-methyl-N-(3-sulfamoylphenyl)-5-(trifluoromethyl)nicotinamide]", "values": [{"measurement": "IC50", "setting": "[7]", "value": "< 5", "unit": "nM"}, {"measurement": "IC50", "setting": "[8]", "value": "< 5", "unit": "nM"}]}
{"smiles": "COCC(=O)N=[S@](C)(=O)c1cccc(NC(=O)c2c(Oc3ccc(F)nc3C)ncc(C(F)(F)F)c2C)c1", "note": "[Example 8D, (R)-2-((6-fluoro-2-methylpyridin-3-yl)oxy)-N-(3-(N-(2-methoxyacetyl)-S-methylsulfonimidoyl)phenyl)-4-methyl-5-(trifluoromethyl)nicotinamide]", "values": [{"measurement": "IC50", "setting": "[1]", "value": "< 5", "unit": "nM"}, {"measurement": "IC50", "setting": "[2]", "value": "< 5", "unit": "nM"}]}
{"smiles": "Cc1nc(F)ccc1Oc1cc(C2CC2)c(C(F)(F)F)c(C)c1C(=O)Nc1cccc([S@](C)(=N)=O)c1", "note": "[Example 9A, (R)-4-cyclopropyl-6-((6-fluoro-2-methylpyridin-3-yl)oxy)-2-methyl-N-(3-(S-methylsulfonimidoyl)phenyl)-3-(trifluoromethyl)benzamide]", "values": [{"measurement": "IC50", "setting": "[9]", "value": "< 5", "unit": "nM"}, {"measurement": "IC50", "setting": "[10]", "value": "< 5", "unit": "nM"}]}
{"smiles": "Cc1nc(F)ccc1Oc1cc(C(F)(F)F)ccc1C(=O)Nc1cccc([S@@](C)(=O)=NC(=O)[C@@H](C)N)c1", "note": "[Example 9B, N-(3-((R)—N-(D-alanyl)-S-methylsulfonimidoyl)phenyl)-2-((6-fluoro-2-methylpyridin-3-yl)oxy)-4-(trifluoromethyl)benzamide]", "values": [{"measurement": "IC50", "setting": "[5]", "value": "< 5", "unit": "nM"}, {"measurement": "IC50", "setting": "[6]", "value": "< 5", "unit": "nM"}]}
{"smiles": "Cc1nc(F)ccc1Oc1nnc(C(F)(F)F)c(C)c1C(=O)Nc1cccc([S@](C)(=N)=O)c1", "note": "[Example 9C, (R)-3-((6-fluoro-2-methylpyridin-3-yl)oxy)-5-methyl-N-(3-(S-methylsulfonimidoyl)phenyl)-6-(trifluoromethyl)pyridazine-4-carboxamide]", "values": [{"measurement": "IC50", "setting": "[7]", "value": "50 to 100", "unit": "nM"}, {"measurement": "IC50", "setting": "[8]", "value": "50 to 100", "unit": "nM"}]}
{"smiles": "Cc1nc(F)ccc1Oc1ncc(C(F)(F)F)c(C)c1C(=O)Nc1cccc([S@@](C)(=O)=NC(=O)[C@@H](C)N)c1", "note": "[Example 9D, N-(3-((R)—N-(D-alanyl)-S-methylsulfonimidoyl)phenyl)-2-((6-fluoro-2-methylpyridin-3-yl)oxy)-4-methyl-5-(trifluoromethyl)nicotinamide formate]", "values": [{"measurement": "IC50", "setting": "[1]", "value": "< 5", "unit": "nM"}, {"measurement": "IC50", "setting": "[2]", "value": "< 5", "unit": "nM"}]}
{"smiles": "Cc1nc(F)ccc1Oc1cc(C(F)(F)F)c(Cl)c(C)c1C(=O)Nc1cccc([S@](C)(=N)=O)c1", "note": "[Example 10A, (R)-3-chloro-6-((6-fluoro-2-methylpyridin-3-yl)oxy)-2-methyl-N-(3-(S-methylsulfonimidoyl)phenyl)-4-(trifluoromethyl)benzamide]", "values": [{"measurement": "IC50", "setting": "[3]", "value": "< 5", "unit": "nM"}, {"measurement": "IC50", "setting": "[4]", "value": "< 5", "unit": "nM"}]}
{"smiles": "CNCC(=O)N=[S@](C)(=O)c1cccc(NC(=O)c2ccc(C(F)(F)F)cc2Oc2ccc(F)nc2C)c1", "note": "[Example 10B, (R)-2-((6-fluoro-2-methylpyridin-3-yl)oxy)-N-(3-(S-methyl-N-(methylglycyl)sulfonimidoyl)phenyl)-4-(trifluoromethyl)benzamide]", "values": [{"measurement": "IC50", "setting": "[5]", "value": "5 to 50", "unit": "nM"}, {"measurement": "IC50", "setting": "[6]", "value": "5 to 50", "unit": "nM"}]}
{"smiles": "Cc1nc(F)ccc1Oc1ncc(C(F)(F)F)c(C)c1C(=O)Nc1cccc([S@@](C)(=O)=NC(=O)[C@@H]2CCOC2)c1", "note": "[Example 10D, 2-((6-fluoro-2-methylpyridin-3-yl)oxy)-4-methyl-N-(3-((R)—S-methyl-N—((R)-tetrahydrofuran-3-carbonyl)sulfonimidoyl)phenyl)-5-(trifluoromethyl)nicotinamide]", "values": [{"measurement": "IC50", "setting": "[1]", "value": "< 5", "unit": "nM"}, {"measurement": "IC50", "setting": "[2]", "value": "< 5", "unit": "nM"}]}
{"smiles": "Cc1nc(F)ccc1Oc1cc(C(F)(F)F)ccc1C(=O)Nc1cccc([S@@](C)(=O)=NC(=O)CO)c1", "note": "[Example 11B, (R)-2-((6-fluoro-2-methylpyridin-3-yl)oxy)-N-(3-(N-(2-hydroxyacetyl)-S-methylsulfonimidoyl)phenyl)-4-(trifluoromethyl)benzamide]", "values": [{"measurement": "IC50", "setting": "[5]", "value": "5 to 50", "unit": "nM"}, {"measurement": "IC50", "setting": "[6]", "value": "5 to 50", "unit": "nM"}]}
{"smiles": "Cc1nc(F)ccc1Oc1ncc(C(F)(F)F)c(C)c1C(=O)Nc1cccc([S@@](C)(=O)=NC(=O)C(N)C(F)(F)F)c1", "note": "(stereo partly drawn) [Example 11D, N-(3-((R)—N-(2-amino-3,3,3-trifluoropropanoyl)-S-methylsulfonimidoyl)phenyl)-2-((6-fluoro-2-methylpyridin-3-yl)oxy)-4-methyl-5-(trifluoromethyl)nicotinamide]", "values": [{"measurement": "IC50", "setting": "[1]", "value": "< 5", "unit": "nM"}, {"measurement": "IC50", "setting": "[2]", "value": "< 5", "unit": "nM"}]}
{"smiles": "Cc1nc(F)ccc1Oc1cc(C(F)(F)F)ccc1C(=O)Nc1cccc([S@@](C)(=O)=NC(=O)[C@H](C)O)c1", "note": "[Example 12B, 2-((6-fluoro-2-methylpyridin-3-yl)oxy)-N-(3-((R)—N—((S)-2-hydroxypropanoyl)-S-methylsulfonimidoyl)phenyl)-4-(trifluoromethyl)benzamide]", "values": [{"measurement": "IC50", "setting": "[5]", "value": "5 to 50", "unit": "nM"}, {"measurement": "IC50", "setting": "[6]", "value": "5 to 50", "unit": "nM"}]}
{"smiles": "Cc1nc(F)ccc1Oc1ncc(C2CC2)c(C)c1C(=O)Nc1cccc([S@](C)(=N)=O)c1", "note": "[Example 12C, (R)-5-cyclopropyl-2-((6-fluoro-2-methylpyridin-3-yl)oxy)-4-methyl-N-(3-(S-methylsulfonimidoyl)phenyl)nicotinamide]", "values": [{"measurement": "IC50", "setting": "[7]", "value": "50 to 100", "unit": "nM"}, {"measurement": "IC50", "setting": "[8]", "value": "50 to 100", "unit": "nM"}]}
{"smiles": "Cc1nc(F)ccc1Oc1ncc(C(F)(F)F)c(C)c1C(=O)Nc1cccc([S@@](C)(=O)=NC(=O)CO)c1", "note": "[Example 12D, (R)-2-((6-fluoro-2-methylpyridin-3-yl)oxy)-N-(3-(N-(2-hydroxyacetyl)-S-methylsulfonimidoyl)phenyl)-4-methyl-5-(trifluoromethyl)nicotinamide]", "values": [{"measurement": "IC50", "setting": "[1]", "value": "< 5", "unit": "nM"}, {"measurement": "IC50", "setting": "[2]", "value": "< 5", "unit": "nM"}]}
{"smiles": "[2H]C([2H])([2H])c1nc(F)ccc1Oc1cc(C(F)(F)F)c(Cl)cc1C(=O)Nc1ccnc([S@](C)(=N)=O)c1", "note": "[Example 13A, (R)-5-chloro-2-((6-fluoro-2-(methyl-d3)pyridin-3-yl)oxy)-N-(2-(S-methylsulfonimidoyl)pyridin-4-yl)-4-(trifluoromethyl)benzamide]", "values": [{"measurement": "IC50", "setting": "[9]", "value": "< 5", "unit": "nM"}, {"measurement": "IC50", "setting": "[10]", "value": "< 5", "unit": "nM"}]}
{"smiles": "Cc1nc(F)ccc1Oc1cc(C(F)(F)F)ccc1C(=O)Nc1cccc([S@@](C)(=O)=NC(=O)[C@@H](C)O)c1", "note": "[Example 13B, 2-((6-fluoro-2-methylpyridin-3-yl)oxy)-N-(3-((R)—N—((R)-2-hydroxypropanoyl)-S-methylsulfonimidoyl)phenyl)-4-(trifluoromethyl)benzamide]", "values": [{"measurement": "IC50", "setting": "[5]", "value": "5 to 50", "unit": "nM"}, {"measurement": "IC50", "setting": "[6]", "value": "5 to 50", "unit": "nM"}]}
{"smiles": "Cc1nc(F)ccc1Oc1nnc(C(F)(F)F)c(C)c1C(=O)Nc1cccc(S(N)(=O)=O)c1", "note": "[Example 13C, 3-((6-fluoro-2-methylpyridin-3-yl)oxy)-5-methyl-N-(3-sulfamoylphenyl)-6-(trifluoromethyl)pyridazine-4-carboxamide]", "values": [{"measurement": "IC50", "setting": "[7]", "value": "< 5", "unit": "nM"}, {"measurement": "IC50", "setting": "[8]", "value": "< 5", "unit": "nM"}]}
